Data set [1] concerns the target T1, Riboflavin transporter 2 (RFVT2) (Homo sapiens, UniProt Q9HAB3).
T1 construct: gene SLC52A2; hRFVT2 carrying an N-terminal 6-Histidine tag
T1 sequence (Q9HAB3 1-445): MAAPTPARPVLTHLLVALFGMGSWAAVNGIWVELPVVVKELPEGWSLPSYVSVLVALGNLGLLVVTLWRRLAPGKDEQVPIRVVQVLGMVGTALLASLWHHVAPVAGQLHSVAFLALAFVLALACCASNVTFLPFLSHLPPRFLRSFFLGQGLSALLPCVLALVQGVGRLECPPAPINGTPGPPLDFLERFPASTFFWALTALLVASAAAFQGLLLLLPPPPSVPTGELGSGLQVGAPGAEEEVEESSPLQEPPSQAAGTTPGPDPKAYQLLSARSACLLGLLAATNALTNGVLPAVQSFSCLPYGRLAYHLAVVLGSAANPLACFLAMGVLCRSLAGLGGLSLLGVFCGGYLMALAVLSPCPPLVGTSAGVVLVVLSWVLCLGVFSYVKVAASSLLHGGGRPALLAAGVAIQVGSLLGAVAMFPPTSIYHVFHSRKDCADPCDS
The experiment in a line: inhibition of [3H]riboflavin uptake in proteoliposomes with purified recombinant RFVT2, dose-response. Type of data set: biochemical.

Substrate in the data set “purified protein”: Cc1cc2nc3c(=O)[nH]c(=O)nc-3n(C[C@H](O)[C@H](O)[C@H](O)CO)c2cc1C
The experiment in a line: purified protein.

`Cc1cc2nc3c(=O)[nH]c(=O)nc-3n(C[C@H](O)[C@H](O)[C@H](O)COP(=O)(O)O)c2cc1C` [FMN]: the IC50 in data set [1] worked out at 3.3 ± 0.8 µM.

B1: Riboflavin transporter 2 (RFVT2) (Homo sapiens) (protein)
chain: T1 sequence (Q9HAB3 1-445)
On to B1, for which the Km in the data set “purified protein” is on record as 0.26 ± 0.07 µM.

These data come from publication PMC6769532 (International Journal of Molecular Sciences, 2019).
